From patent publication US20230046081A1, “SYNERGISTIC ACTIVITY OF NOVEL COMPOUNDS AGAINST PLANKTONIC AND BIOFILM CELLS OF CLINICALLY RELEVANT PATHOGENS” (priority 2021, published 2023)
Where a name gives a salt, the structure may show the parent alone.

What was measured:
[1] = system: bacterial and fungal biofilms (eight test organisms); assay: Rapid biofilm eradication, 48-h old biofilms, 2 hour exposure; format: cell-based
Method: This example comprises performing biofilm growth as described above. After biofilm formation, control pegs (n=6) were removed and analyzed to determine the starting biofilm cell numbers via the drop dilution method. The 48-h old biofilms on the pegs were exposed to different concentrations of test antimicrobials, dissolved in an appropriate growth medium, for 2 hours to evaluate their efficacy alone and in combination. […] Following treatment, pegs were washed twice with sterile PBS, and the biofilm cells were dislodged into recovery medium and enumerated as described above.

[2] = system: Klebsiella pneumoniae, E. coli, S. epidermidis, P. aeruginosa, and C. albicans; conditions: 40 mg/mL, locked for 21-25 h; cited from earlier work
[3] = system: Gram-positive, Gram-negative, and fungal biofilms; assay: MBEC Assay, 48 h old biofilms on pegs, 24 h antimicrobial exposure; format: cell-based; conditions: 24 hours of treatment
Method: The evaluation of the biofilm cultivation cell composition was evaluated using an MBEC Assay® biofilm inoculator, consisting of a polystyrene lid with 96 downward-protruding pegs and a corresponding base used to grow biofilms. A standardized inoculum was diluted in an appropriate biofilm growth medium to achieve a viable cell count of 1.5×10^6 CFU/mL of bacterial cells or 5×10^5 CFU/mL of fungal cells. Then, 150 μL of this inoculum was transferred into each appropriate well, and the peg lids were inserted into the microtiter plates. The plates were sealed with Parafilm and were incubated at optimum temperature for 48 h with slight rocking for bacteria and shaking at 200 rpm for fungal strains. After incubation, the peg lid was removed from the base and rinsed twice with sterile phosphate-buffered saline (PBS) for 2 min to remove loosely attached non-sessile cells. Before the antimicrobial challenge, the pegs in column 1 (n=8) were considered as the biofilm growth control; these pegs were removed from the lids, placed into 200 μL of recovery medium, and analyzed for starting biofilm cell numbers as described below. […] After the antimicrobial challenge, the pegs were rinsed twice with sterile PBS for 2 min and placed into a new 96-well plate containing 200 μL of recovery medium. The recovery plates were sealed with Parafilm, and biofilm cells were dislodged from the pegs by sonication for 30 min with a Branson 3510 bath sonicator. The biofilm cells in the recovery medium were serially diluted, and a drop dilution assay was performed to enumerate the viable cells.

[4] = system: commonly encountered pathogens; conditions: cited from earlier work
[5] = dog, in vivo; cited from earlier work

Row | SMILES | eradication of preformed biofilms, agent alone at its MBEC [1] | biofilm colonization on catheter segments [2] | concentration alone able to eradicate all established biofilms [3] | minimum ethanol required to provide a 3-log reduction [4] [%] | cochlear or vestibular neurotoxicity [5]
1 | O=C(O)CN(CCN(CC(=O)O)CC(=O)O)CC(=O)O.[Na].[Na].[Na].[Na] [tetrasodium EDTA, tetrasodium ethylenediaminetetraacetic acid] | failed to eradicate | reduced biofilm colonization | 4% |  | 
2 | CCO [ethanol, reference compound] | failed to eradicate |  | 50% | ≥ 60 | 
3 | [H]/N=C(\N/C(=N/[H])NCCCCCCNC(=N)NC(=N)Nc1ccc(Cl)cc1)Nc1ccc(Cl)cc1 [chlorhexidine HCl, 1,6-bis(4-chloro-phenylbiguanido)hexane, reference compound] | failed to eradicate |  | 100 µg/mL |  | 
4 | [H]/N=C(\N/C(=N/[H])NCCCCCCNC(=N)NC(=N)Nc1ccc(Cl)cc1)Nc1ccc(Cl)cc1 [chlorhexidine, 1,6-bis(4-chloro-phenylbiguanido)hexane] |  |  |  |  | did not induce cochlear or vestibular neurotoxicity
